From patent US9249128B2 (priority 2010, dated 2016) come the findings set out here.

As a reminder, the IC50 is the concentration needed to halve the response being measured.

Each structure is given as a SMILES string.

One test has as its target T1, AChE (Mus musculus, UniProt P21836).
T1 construct: 20 μg of cell lysate or mouse brain membrane proteome; from tissue; host or cells: mouse brain (membrane proteome)
T1 sequence (P21836 32-614): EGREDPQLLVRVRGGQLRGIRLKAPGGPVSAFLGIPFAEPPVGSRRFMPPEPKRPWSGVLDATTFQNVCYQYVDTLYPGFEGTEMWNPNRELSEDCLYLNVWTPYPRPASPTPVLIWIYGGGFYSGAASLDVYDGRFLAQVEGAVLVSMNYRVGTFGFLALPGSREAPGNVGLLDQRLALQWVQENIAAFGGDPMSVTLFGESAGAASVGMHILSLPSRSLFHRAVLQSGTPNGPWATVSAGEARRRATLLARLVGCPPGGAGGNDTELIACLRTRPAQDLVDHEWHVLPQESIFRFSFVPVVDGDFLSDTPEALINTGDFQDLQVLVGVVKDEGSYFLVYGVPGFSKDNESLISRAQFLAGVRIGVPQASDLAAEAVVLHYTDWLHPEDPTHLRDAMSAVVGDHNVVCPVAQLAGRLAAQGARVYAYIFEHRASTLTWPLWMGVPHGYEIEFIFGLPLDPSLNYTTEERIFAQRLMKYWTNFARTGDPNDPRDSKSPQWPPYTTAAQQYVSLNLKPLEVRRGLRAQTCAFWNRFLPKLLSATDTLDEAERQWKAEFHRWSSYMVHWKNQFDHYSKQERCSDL
Nature of the test: AChE activity assay with acetylthiocholine in mouse brain proteome. Particulars: for Cross-reactivity with AChE: acetylthiocholine hydrolysis in mouse brain membrane proteome; for IC50: mouse brain proteome, substrate acetylthiocholine, n=3, read-out: IC50 for AChE (FIG. 2D). The format is biochemical. How it is done:
AChE activity was measured using a method similar to that described previously (Ellman et al., 1961). Briefly, 50 μL of 10 mM acetylthiocholine was added to 200 μL of PBS containing 2 mM DTNB and 20 μg of cell lysate or mouse brain membrane proteome. Absorbance was measured at 412 nm over 5 min, and the rate of product accumulation was calculated from the slope of the absorbance over time. For assays involving preincubation with inhibitors, the reactions were prepared without acetylthiocholine and JW480 was incubated at the indicated concentration for 30 min at 37° C. Acetylthiocholine was then added and the assay was carried out exactly as described above.

In a further test the test system is LNCaP cells. The test can be described thus: Cell survival assay in LNCaP cells. The class given is cell-based, human. The note with it: 1 μM, 48 h in situ treatment; cells express low levels of KIAA1363. Here is the method: (§1) Inhibitors were dissolved in DMSO and diluted into media or buffer prior to cell or proteome treatment, respectively. For in vitro treatment, final DMSO concentration was 4%. For in situ treatments of cells for ABPP, lipid measurements, migration, cell-survival, and invasion assays, 2×10^6 cells were seeded in 6 cm dishes (˜100% confluency) 24 h prior to inhibitor pre-treatment (in DMSO at 0.1% final concentration) in serum-free media (3 mL) for the designated time before harvesting cells for ABPP or lipid measurements or before the initiation of migration, cell-survival, and invasion assays.
Cell migration, cell survival, and invasion studies were performed as previously described (Nomura et al., 2010). Briefly, migration assays were performed in Transwell chambers (Corning) with 8 μm pore-sized membranes coated with 10 μg/mL collagen at 37° C. for LNCaP (24 h), PC3 (4 h) and DU145 cells (24 h), respectively. Cell survival assays were performed using the Cell Proliferation Reagent WST-1 (Roche) Invasion assays were conducted using the BD Matrigel Invasion Chambers per the manufacturer's protocol. Inhibitors were preincubated for the stated duration before seeding cells into migration, cell-survival, or invasion chambers. Prior to seeding the cells in these chambers, cells were serum-starved for 4 h. Inhibitors were also present during the migration, cell-survival, and invasion assays.

Another test deals with PC3 tumor xenograft. The test can be described thus: PC3 tumor xenograft growth in SCID mice. The class given is in vivo, mouse. The note with it: 80 mg/kg, oral, daily, versus vehicle. How it is done:
Human cancer xenografts were established by transplanting cancer cell lines ectopically into the flank of C.B17 SCID mice (Taconic Farms). Briefly, cells were washed two times with PBS, trypsinized, and harvested in serum-containing medium. Next, the harvested cells were washed two times with serum-free medium and resuspended at a concentration of 2.0×10^4 cells/μL and 100 μL was injected. Growth of the tumors was measured every 3 days with calipers. For chronic JW480 treatment studies, mice were treated with JW480 or vehicle once daily (at approximately the same time everyday) by oral gavage in PEG300 (4 μL/g mouse). The treatments were initiated immediately after ectopic injection of cancer cells.

A further test addresses T2, KIAA1363 (Homo sapiens, UniProt Q6PIU2).
T2 sequence (Q6PIU2 1-408): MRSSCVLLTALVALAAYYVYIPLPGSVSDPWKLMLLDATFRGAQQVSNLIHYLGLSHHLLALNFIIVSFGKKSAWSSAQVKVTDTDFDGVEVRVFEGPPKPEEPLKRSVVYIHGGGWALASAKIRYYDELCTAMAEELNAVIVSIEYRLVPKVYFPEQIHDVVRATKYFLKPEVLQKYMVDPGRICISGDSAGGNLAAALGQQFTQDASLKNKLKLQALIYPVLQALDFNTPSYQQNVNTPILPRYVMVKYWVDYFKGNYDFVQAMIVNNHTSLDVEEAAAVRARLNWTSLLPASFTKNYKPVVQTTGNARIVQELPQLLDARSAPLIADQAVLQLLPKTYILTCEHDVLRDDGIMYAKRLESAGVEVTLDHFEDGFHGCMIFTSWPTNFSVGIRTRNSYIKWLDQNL
The test can be described thus: Gel-based competitive ABPP in PC3 cell proteomes, in vitro treatment. Also noted: PC3 cancer cells, which have high endogenous KIAA1363 levels; endogenous in cells; host or cells: PC3. The class given is biochemical. Here is the method: as §1
For ABPP experiments, cell lysate and tissue proteomes were treated with 1 μM FP-rhodamine for 30 min at room temperature (50 μL total reaction volume) as described previously (Nomura et al., 2010). Reactions were quenched with one volume of standard 4×SDS/PAGE loading buffer (reducing), separated by SDS/PAGE (10% acrylamide), and visualized in-gel with a Hitachi FMBio IIe flatbed fluorescence scanner (MiraiBio). Inhibitors were preincubated prior (30 min or 4 h at 37° C. in vitro or in situ, respectively) to the addition of FP-rhodamine.

Consider `COc1ccc(CNC(=O)Oc2cccc3c2OC(C)(C)C3)cc1` [JW148, 2,2-dimethyl-2,3-dihydrobenzofuran-7-yl 4-methoxybenzylcarbamate], for which, at AChE, the “Cross-reactivity with AChE” value is “cross-reactivity” and the IC50 is 1 µM.
As for `CC(C)c1ccccc1OC(=O)NCCc1ccc2ccccc2c1` [JW480, 2-isopropylphenyl (2-(naphthalen-2-yl)ethyl)carbamate], the “Cross-reactivity with AChE” value at AChE was “negligible cross-reactivity”. In addition, the IC50 at AChE is over 100 µM; at KIAA1363 (in vitro treatment) it was 0.012 µM. In the test with LNCaP cells, the “Survival of LNCaP cells” value was “does not affect”. For the same molecule, the PC3 tumor growth result with PC3 tumor xenograft was “significantly impaired”. Further, the “Selectivity for KIAA1363 by gel-based competitive ABPP” value at KIAA1363 (PC3 cells, also DU145 and LNCaP cells) is recorded as “excellent selectivity”.
